Experimental data as given in patent US20230090255A1, “MAGL INHIBITOR, PREPARATION METHOD THEREFOR AND USE THEREOF” (LUNAN PHARMACEUTICAL GROUP CORPORATION, priority 2019, published 2023).

Legend:
[1] = system: mice pain response induced by hot plate; experiment: Mice pain response induced by hot plate; format: in vivo, ICR mice; conditions: hot plate 55°C
Experimental: Female ICR mice (20±2) g were placed on an intelligent hot plate at 55±0.5° C., and latency (s) that the plantar of mice touched the hot plate until the occurrence of a hind paws licking response served as a pain threshold indicator; the mice (response latency <5 s or >30 s) or jumping mice were eliminated.
Grouping and administration were the same as those in Example 40.
The mice were continuously administered intragastrically for 7 consecutive days; the pain threshold of each group of mice was respectively determined once at 30, 60, 90 and 120 min after the final administration; the pain threshold greater than 60 s was calculated by 60 s.

[2] = system: irritable bowel syndrome rats; experiment: Irritable bowel syndrome rats induced by early maternal separation; format: in vivo, SD rats; parameters: AWR scoring: scale not given here; conditions: IBS rats
Experimental: The newborn SD male rats were separated from the mother rat in lactation period for 3 h every day on the 2nd to the 21st day after the birth of the newborn SD rats, namely, the mother rat in lactation period was taken out of the cage at 8:30 a.m., and then the newborn rats were removed from the initial cage and put to another separate cage, then the cage was transferred to an adjacent room, then the newborn rats were returned to the initial cage 3 h later, namely, at 11:30 such that the newborn rats and the mother rat got together; the newborn rats were weaned on the 22nd day after birth and separated from the initial cage on the 30th day, grouped on the 60th day, and administered, 20 d in total.
Intragastric administration was performed within the administration period once a day with continuous administration for 20 d.
Test indicators: abdominal withdrawal reflex (AWR); test method: rats were fasted 18 h before the experiment and drank water freely, and narcotized with diethyl ether; then an air sac coated with paraffin oil was inserted into the rats’ colorectum for 4.0 cm, and a catheter outside the anus was fixed at the root of the rat tail with an adhesive tape, and connected with an injection syringe and a sphygmomanometer via three links. The rats were put to an organic glass inspection box (20 cmx12 cm×9 cm), after the rats were awake and fully adapted to the environment for 30 min, the experiment was started. 20, 40 and 60 mm Hg of pressure were respectively applied on the rats, and continuous expansion was performed for 20 s each time with a stimulus interval of 4 min; each pressure was performed for 3 times repeatedly for AWR scoring.
At the end of the experiment, the animals were dissected and weighed, and narcotized to take blood, then the content of 5-HT in serum was determined by high performance liquid chromatography. […] slightly with 0.5% sodium carboxymethylcellulose, and then sucked dry with a filter paper, and placed into a cryogenic tube, and preserved at -20° C. for further use, […] chromatography.

[3] = system: mice writhing caused by acetic acid; experiment: Mice writhing caused by acetic acid; conditions: for Writhing times: 1 h before 0.7% acetic acid ip, within 20 min; for Latent time: time to first writhing

Molecule `O=C(Nc1ccc(Cl)cc1)C1CCN(C(=O)c2ccc(O)cc2)CC1` [MAGLZ-II-10] has a Pain threshold ([1]; high dose 30 mg/kg ig 7 d, 30 min after final administration) of 17.73 ± 6.20 s, a Pain threshold ([1]; high dose 30 mg/kg ig 7 d, 60 min) of 19.77 ± 6.73 s and a Pain threshold ([1]; high dose 30 mg/kg ig 7 d, 90 min) of 25.25 ± 7.01 s. For the same molecule, the Pain threshold ([1]; high dose 30 mg/kg ig 7 d, 120 min) was 24.90 ± 5.73 s, the Pain threshold ([1]; low dose 7.5 mg/kg ig 7 d, 30 min after final administration) was 16.37 ± 6.00 s and the Pain threshold ([1]; low dose 7.5 mg/kg ig 7 d, 60 min) was 17.93 ± 5.75 s. For the same molecule, the Pain threshold ([1]; low dose 7.5 mg/kg ig 7 d, 90 min) was 19.24 ± 4.72 s, the Pain threshold ([1]; low dose 7.5 mg/kg ig 7 d, 120 min) was 19.14 ± 4.63 s and the Pain threshold ([1]; middle dose 15 mg/kg ig 7 d, 30 min after final administration) was 16.67 ± 5.97 s. The Pain threshold ([1]; middle dose 15 mg/kg ig 7 d, 60 min) was 18.79 ± 5.95 s, the Pain threshold ([1]; middle dose 15 mg/kg ig 7 d, 90 min) was 22.43 ± 5.31 s and the Pain threshold ([1]; middle dose 15 mg/kg ig 7 d, 120 min) was 20.60 ± 4.64 s. The “Colon 5-HT” value ([2]; high dose 30 mg/kg ig 20 d) was 18.66±2.38^∗ µg/mg, the “Serum 5-HT” value ([2]; high dose 30 mg/kg ig 20 d) was 33.09±2.31^∗ µg/ml and the AWR scoring ([2]; high dose 30 mg/kg ig 20 d, 20 mm Hg) was 2.89±0.46. The AWR scoring ([2]; high dose 30 mg/kg ig 20 d, 40 mm Hg) was 3.21±0.35^∗, the AWR scoring ([2]; high dose 30 mg/kg ig 20 d, 60 mm Hg) was 3.65±0.17^∗ and the “Colon 5-HT” value ([2]; low dose 7.5 mg/kg ig 20 d) was 21.44 ± 2.72 µg/mg. For the same molecule, the “Serum 5-HT” value ([2]; low dose 7.5 mg/kg ig 20 d) was 36.32 ± 3.14 µg/mL, the AWR scoring ([2]; low dose 7.5 mg/kg ig 20 d, 20 mm Hg) was 2.87±0.39 and the AWR scoring ([2]; low dose 7.5 mg/kg ig 20 d, 40 mm Hg) was 3.43±0.30. The AWR scoring ([2]; low dose 7.5 mg/kg ig 20 d, 60 mm Hg) was 3.79±0.20, the “Colon 5-HT” value ([2]; middle dose 15 mg/kg ig 20 d) was 20.97 ± 2.24 µg/mg and the “Serum 5-HT” value ([2]; middle dose 15 mg/kg ig 20 d) was 38.65 ± 2.68 µg/mL. It also gave an AWR scoring ([2]; middle dose 15 mg/kg ig 20 d, 20 mm Hg) of 2.83±0.47, an AWR scoring ([2]; middle dose 15 mg/kg ig 20 d, 40 mm Hg) of 3.56±0.22 and an AWR scoring ([2]; middle dose 15 mg/kg ig 20 d, 60 mm Hg) of 3.80±0.17. For the same molecule, the Writhing times ([3]; high dose 30 mg/kg ig) was 24.8±11.1^∗, the Latent time ([3]; high dose 30 mg/kg ig) was 306.4±90.2^∗ s and the Writhing times ([3]; low dose 7.5 mg/kg ig) was 34.0±9.1. The Latent time ([3]; low dose 7.5 mg/kg ig) was 235.4 ± 59.6 s, the Writhing times ([3]; middle dose 15 mg/kg ig) was 32.8±11.6 and the Latent time ([3]; middle dose 15 mg/kg ig) was 246.2 ± 69.5 s.
